This is an account of results in patent publication US20250345307A1, “SYNTHETIC […] BROAD-SPECTRUM ANTIVIRAL ACTIVITIES AND USES THEREOF” (priority 2020, published 2025).

Data set [1] concerns persistently HEV-infected A549 cells. To be noted: 2 nM, 72 h.
A further data set concerns tumor growth. As to conditions: xenograft mouse model; cited from earlier work.
The conditions of data set [2]: mice, cited from earlier work.
The subject of data set [3] is MERS-CoV. As to conditions: read-out: EC50 reported previously for MERS-CoV; cited from earlier work.
The subject of data set [4] is SARS-CoV-2. The class given is cell-based, severe acute respiratory syndrome coronavirus 2.
Data set [5] has as its system HCoV-229E. It is filed as cell-based, human coronavirus 229E.
Data set [6] deals with SARS-CoV-2. The class given is cell-based, severe acute respiratory syndrome coronavirus 2. This is another data set of the same source.
Data set [7] relates to HCoV-229E. Put plainly: Immunofluorescence of nsp8 and dsRNA in HCoV-229E-infected MRC-5 cells. The class given is cell-based, human coronavirus 229E. As to conditions: MRC-5, MOI 1, 24 hpi.
Data set [8] has as its system MERS-CoV. Put plainly: microbe, parasite or virus in culture. It is filed as cell-based, Middle East respiratory syndrome coronavirus.
The test system of data set [9] is HCoV-229E. As to conditions: Müller et al. [2020]; read-out: EC50 reported previously for HCoV-229E; cited from earlier work.
Data set [10] relates to eIF4A-dependent translation. Put plainly: cells. It is filed as cell-based. To be noted: for inhibition at 0.01 µM: read-out: inhibition of translation of the (AG)15 construct.
The test system of data set [11] is SARS-CoV-2. Put plainly: Immunofluorescence of viral dsRNA in SARS-CoV-2-infected Vero E6 cells. The class given is cell-based, severe acute respiratory syndrome coronavirus 2. To be noted: Vero E6, MOI 1, 24 h p.i.
The test system of data set [12] is HCoV-229E. Put plainly: microbe, parasite or virus in culture. It is filed as cell-based, human coronavirus 229E.
The subject of another data set is HEV. The class given is cell-based, hepatitis E virus.
Another data set concerns NHBE cells. The data set can be described thus: Cytotoxicity in differentiated NHBE cells by light microscopy. It is filed as cell-based, human. To be noted: 100 nM.
Data set [13] relates to HCoV-229E. The class given is cell-based, human coronavirus 229E. This is another data set of the same source.
For data set [14], the system named is SARS-CoV-2. The data set can be described thus: microbe, parasite or virus in culture. The class given is cell-based, severe acute respiratory syndrome coronavirus 2.
Another data set deals with ZIKV. Put plainly: Antiviral activity against ZIKV (strain 976 Uganda) in A549 cells, intracellular ZIKV genomes by qRT-PCR. The class given is cell-based. As to conditions: Zika virus. In general terms: In qPCR the cycle at which signal appears reflects the starting amount.
In the next data set the test system is CCHFV. Put plainly: microbe, parasite or virus in culture. To be noted: for pEC50: Orthonairovirus haemorrhagiae, Hepatocyte, in Mus musculus. The class given is cell-based, Crimean-Congo hemorrhagic fever virus.
A further data set deals with murine hepatocytes. As to conditions: for CC50: mouse.
Data set [15] concerns HCoV-229E. The class given is cell-based, human coronavirus 229E. The source holds these as a separate data set.
A further data set deals with LASV. The data set can be described thus: microbe, parasite or virus in culture. It is filed as cell-based, Lassa mammarenavirus. As to conditions: for pEC50: Mammarenavirus lassaense, Hepatocyte, in Mus musculus.
A further data set deals with A549 cells. To be noted: human.
Setting [16] is: Middle East respiratory syndrome-related coronavirus, MRC5.

pEC50: −log10 of the molar value. Entries after “also recorded” stand apart in the source; their conditions may differ. Like-named read-outs stand apart in the source and are kept apart here.

For the molecule CR-31-B, the “reduction of cell viability” value in [1] is reported as “not cytotoxic”. Besides, in the data set on tumor growth, the tumor growth entry is reported as “reduced tumor growth efficiently”. The “serum levels of aminotransferases (ALT and AST), albumin, total bilirubin, creatinine” value in [2] (two weeks after cessation of treatment) is recorded as “not significantly changed”. For the same molecule, in [2], the “body weight, number of blood cells” value is on record as “did not change” and the “toxicity in the gastrointestinal tract” value is given as “no toxicity could be observed”. Further, in the data set on MRC-5 cells, the “cytotoxic effects (in words)” value is on record as “no major cytotoxic effects”.

Turning to `CONC(=O)[C@H]1[C@@H](O)[C@@]2(O)c3c(OC)cc(OC)cc3O[C@@]2(c2ccc(OC)cc2)[C@@H]1c1ccccc1` [CR-31-B (−)], the negative logarithm of the EC50 (pEC50) in the data set on MERS-CoV [3] was 8.73. The “Viral nucleocapsid (N) protein levels” value with SARS-CoV-2 [4] is reported as “drastically reduced; also recorded: moderately reduced”. Besides, in data set [1], the “reduction of cell viability” value is on record as “no major cytotoxic effects”. For the same molecule, in the data set with HCoV-229E [5], the “Coronavirus N-protein levels” value was “strongly reduced”. Moreover, in the data set with SARS-CoV-2 [6], the “SARS-CoV-2 replication / titers” value was “undetectable levels”, the “reduction of SARS-CoV-2 titers” value is listed as “about 4 logs” and the “reduction of production of infectious virus progeny” value is reported as “approximately 1.5 log steps”. The “formation of viral replication/transcription complexes” value in the data set with HCoV-229E [7] is listed as “reduced”. Besides, in the data set with MERS-CoV [8], the negative-log EC50 (pEC50) is 8.73 and the MERS-CoV titer reduction result is “about 5 log phases”. In addition, the negative-log EC50 (pEC50) in the data set with MERS-CoV [8] (setting [16]) was 8.68. In the data set with HCoV-229E [9], the pEC50 is 8.54. Further, in data set [10], the “induction of luciferase activity” value turned out to be 1.5 fold; the “reporter activity, VP35-HP only” value is listed as “about twofold”; the “reporter activity, VP35-HP+(AG)5” value is reported as “reduced back to basic levels”; the “sensitivity of translation, EBOV VP35 5′-UTR” value is “insensitive”. Also, in data set [10], the “sensitivity to eIF4A-dependent translation inhibition, 5′-UTRs of SARS-CoV-2, HCoV-229E and MERS-CoV” value is listed as “similarly sensitive”; the “sensitivity to translation inhibition, 5′-UTRs of HCoV-229E, MERS-CoV and EBOV VP30” value is “similarly sensitive”; the “sensitivity, HEVgt3c-Purine 5′-UTR” value was “became sensitive”; the inhibition at 0.01 µM is approximately 80%. In addition, the “replicative organelles active in viral RNA synthesis (dsRNA)” value in the data set on SARS-CoV-2 [11] is “profound reduction”. The molecule also showed a pEC50 in the data set with HCoV-229E [12] of 8.54. Besides, the pEC50 in the data set on HCoV-229E [12] (Human coronavirus 229E, MRC5) is 8.46. Besides, in the data set on HEV, the “antiviral effect on extracellular HEV RNA levels” value is “slightly weaker; also recorded: some antiviral activity”. The “cytotoxicity by light microscopy” value with NHBE cells is recorded as “No obvious cytotoxicity”. In addition, the “cytotoxicity (in words)” value in the data set with Vero E6 cells is reported as “No major cytotoxicity”. The “cell viability reduced by” value with Vero E6 cells (African green monkey) is 10-25%. In addition, the “genomic and subgenomic RNA levels of HCoV-229E” value with HCoV-229E [13] is “reduced”. Further, the “selectivity index (CC50/EC50)” value in the data set on SARS-CoV-2 [14] is on record as more than 50. This molecule also had a negative logarithm of the EC50 (pEC50) with SARS-CoV-2 [14] (Severe acute respiratory syndrome coronavirus 2, Vero C1008, 24 h) of approximately 8.74. Moreover, in the data set with ZIKV (A549 cells, MOI 0.1, ZIKV genomes by qRT-PCR, 24 hpi, read-out: EC50), the negative-log EC50 (pEC50) was 8.95. Further, in the data set on CCHFV, the “virus titer drop, CCHFV-infected cells” value was approximately 3 log and the negative logarithm of the EC50 (pEC50) was 7.70. In addition, in the data set with murine hepatocytes, the “cytotoxicity (in words)” value is “no detectable cytotoxicity” and the CC50 was more than 5000 nM. Also, in the data set with MRC-5 cells, the “cytotoxicity (in words)” value is “no major cytotoxicity”. In the data set with MRC-5 cells (human), the CC50 is more than 5000 nM and the “reduction of cell viability” value is listed as 10-25%. In addition, in the data set on HCoV-229E [15], the infectious virus production entry is “undetectable levels” and the “reduction of virus titer in the supernatant” value was “about 1.5 orders of magnitude”. For the same molecule, in the data set on LASV, the “antiviral activity against LASV and CCHFV (in words)” value (“antiviral activity … (in words)” below) is recorded as “potent antiviral activity”; the “virus titer drop, LASV-infected cells” value is given as “approximately 4 log”; the pEC50 is 7.44. Further, the negative-log EC50 (pEC50) with LASV (read-out: EC50 values) is 7.30 to 7.70.

`COC(=O)[C@H]1[C@@H](O)[C@@]2(O)c3c(OC)cc(O[C@@H]4O[C@@H]([C@H](O)CO)CO[C@H]4OC)cc3O[C@@]2(c2ccc(OC)cc2)[C@@H]1c1ccccc1` [Silvestrol, methyl(1R,2R,3S,3aR,8bS)-6-[[(2S,3R,6R)-6-[(1R)-1,2-dihydroxyethyl]-3-methoxy-1,4-dioxan-2-yl]oxy]-1,8b-dihydroxy-8-methoxy-3a-(4-methoxyphenyl)-3-phenyl-2,3-dihydro-1H-cyclopenta[b][1]benzofuran-2-carboxylate, reference compound]: in the data set on SARS-CoV-2 [6], the “SARS-CoV-2 replication / titers” value is “completely abolished”. This molecule also gave a CC50 with A549 cells of 9.42 nM. In addition, the tumor growth result with tumor growth was “reduced tumor growth efficiently”. The molecule further had a negative-log EC50 (pEC50) with MERS-CoV [8] (setting [16]) of 8.89. For the same molecule, in data set [10], the “induction of luciferase activity” value is given as 1.5 fold; the “inhibitory effect, destabilized HEV 5′-UTR hairpin” value was “gradual loss of the inhibitory effect”; the “luciferase activity, HEVgt3c 5′-UTR” value is reported as “reduced luciferase activity”; the “reporter activity, VP35-HP only” value is given as “sufficient to mediate translation inhibition”. Further, in [10], the “reporter activity, VP35-HP+(AG)5” value is on record as “slightly increased translation inhibition”; the “sensitivity of translation, EBOV VP35 5′-UTR” value is given as “sensitive”; the “sensitivity to translation inhibition, 5′-UTRs of HCoV-229E, MERS-CoV and EBOV VP30” value is recorded as “similarly sensitive”; the “sensitivity, HEVgt3c-Purine 5′-UTR” value is “became sensitive”. For the same molecule, the inhibition at 0.01 µM in [10] was approximately 55%. The molecule also had a negative logarithm of the EC50 (pEC50) with HCoV-229E [12] (Human coronavirus 229E, MRC5) of 8.52. In the data set on HEV, the “antiviral effect on extracellular HEV RNA levels” value is “antiviral activity”. In the data set on ZIKV (A549), the pEC50 was 8.97. Besides, in the data set with CCHFV, the “virus titer drop, CCHFV-infected cells” value is given as approximately 3 log and the negative-log EC50 (pEC50) is 7.54. In the data set on murine hepatocytes, the “cytotoxicity (in words)” value is “no detectable cytotoxicity” and the CC50 is more than 5000 nM. In the data set with MRC-5 cells (human), this molecule had a CC50 of more than 10000 nM. In the data set with HCoV-229E [15], the infectious virus production entry was “undetectable levels” and the “reduction of virus titer in the supernatant” value was “similar”. For the same molecule, in the data set on LASV, the “antiviral activity … (in words)” value is “potent antiviral activity”; the “virus titer drop, LASV-infected cells” value was “approximately 4 log”; the pEC50 was 7.29. Further, in the data set on LASV (read-out: EC50 values), the pEC50 is 7.30 to 7.70.

Regarding `CONC(=O)[C@@H]1[C@H](O)[C@]2(O)c3c(OC)cc(OC)cc3O[C@]2(c2ccc(OC)cc2)[C@H]1c1ccccc1` [CR-31-B (+)], in the data set on SARS-CoV-2 [4], the “Viral nucleocapsid (N) protein levels” value is on record as “not affected”. Further, the “reduction of cell viability” value in data set [1] was “no major cytotoxic effects”. Moreover, in the data set with HCoV-229E [5], the “Coronavirus N-protein levels” value is “no detectable effect”. Moreover, the “SARS-CoV-2 replication / titers” value with SARS-CoV-2 [6] is listed as “did not affect viral replication”. Also, the “cytotoxicity (in words)” value in the data set with MRC-5 cells was “no major cytotoxicity”. Moreover, the infectious virus production result with HCoV-229E [15] is reported as “did not significantly reduce viral replication”. Moreover, the “antiviral activity … (in words)” value with LASV is reported as “no antiviral effects”.

One may read the pEC50 as the EC50 on a negative log10 scale, so that one unit is a factor of ten. As a reminder, the inhibition is the relative decrease from the control value, in per cent.
